Structures are written as SMILES. Activity calls are given as the source filed them. No cut-off for these calls is given here.

In one data set the target is Acetylcholinesterase (Homo sapiens, UniProt P22303). Nature of the data set: Inhibition of human AChE using acetylthiocholine iodide as substrate preincubated for 5 mins followed by substrate addition measured after 60 to 300 sec by Ellman's method. In general terms: In Ellman's method for cholinesterases, released thiocholine reacts with DTNB.
Chain of Acetylcholinesterase (P22303 whole entry): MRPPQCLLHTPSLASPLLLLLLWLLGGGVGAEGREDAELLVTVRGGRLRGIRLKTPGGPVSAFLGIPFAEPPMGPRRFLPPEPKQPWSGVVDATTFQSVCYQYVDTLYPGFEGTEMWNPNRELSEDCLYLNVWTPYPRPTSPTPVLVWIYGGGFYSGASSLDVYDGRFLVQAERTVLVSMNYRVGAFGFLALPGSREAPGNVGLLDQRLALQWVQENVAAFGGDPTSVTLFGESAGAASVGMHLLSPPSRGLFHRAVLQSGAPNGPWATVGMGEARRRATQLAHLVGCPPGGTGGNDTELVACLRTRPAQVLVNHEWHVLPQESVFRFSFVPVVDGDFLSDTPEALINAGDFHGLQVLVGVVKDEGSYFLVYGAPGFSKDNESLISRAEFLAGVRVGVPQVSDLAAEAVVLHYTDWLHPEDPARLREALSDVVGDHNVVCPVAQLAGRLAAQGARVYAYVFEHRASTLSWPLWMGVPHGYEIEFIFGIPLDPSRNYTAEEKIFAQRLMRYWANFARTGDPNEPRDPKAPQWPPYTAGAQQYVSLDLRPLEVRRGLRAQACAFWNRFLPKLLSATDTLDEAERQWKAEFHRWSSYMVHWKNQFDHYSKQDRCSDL
For data set [1], the target named is T1, Cholinesterase (Homo sapiens, UniProt P06276).
T1 sequence (P06276 whole entry): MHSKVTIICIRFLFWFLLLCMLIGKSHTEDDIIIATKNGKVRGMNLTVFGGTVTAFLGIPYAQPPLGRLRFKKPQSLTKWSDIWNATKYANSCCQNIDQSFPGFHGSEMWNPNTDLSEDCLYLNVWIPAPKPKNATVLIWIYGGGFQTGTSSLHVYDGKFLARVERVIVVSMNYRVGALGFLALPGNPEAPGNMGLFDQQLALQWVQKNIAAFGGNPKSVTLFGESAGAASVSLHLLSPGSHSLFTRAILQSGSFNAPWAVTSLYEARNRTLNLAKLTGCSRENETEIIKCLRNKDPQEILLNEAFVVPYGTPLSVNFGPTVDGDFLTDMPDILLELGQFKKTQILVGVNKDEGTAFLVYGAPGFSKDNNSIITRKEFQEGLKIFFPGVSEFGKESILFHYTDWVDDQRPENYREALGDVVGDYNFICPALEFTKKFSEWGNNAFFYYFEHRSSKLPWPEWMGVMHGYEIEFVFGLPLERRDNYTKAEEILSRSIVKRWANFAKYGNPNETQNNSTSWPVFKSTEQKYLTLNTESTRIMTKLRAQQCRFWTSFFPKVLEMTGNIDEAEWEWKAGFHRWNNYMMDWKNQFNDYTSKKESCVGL
Description: Inhibition of human BuChE using S-butyrylthiocholine iodide as substrate preincubated for 5 mins followed by substrate addition measured after 60 to 300 sec by Ellman's method
Data set [2] in a line: Antioxidant activity assessed as DPPH free radical scavenging activity at 50 uM incubated for 60 mins in dark relative to control. The data set is classed as physicochemical. The note with it: 1 h. On the technique in general: Loss of DPPH colour is used to gauge radical scavenging.
The nature of data set [3]: Cytotoxicity against human SH-SY5Y cells assessed as cell viability at 50 uM after 24 hrs by MTT assay relative to untreated control. The data set is classed as cell-based. The conditions noted are these: read-out: Activity. Background: Formazan colour is commonly taken as a measure of viable cells.
The target of data set [4] is Amyloid-beta precursor protein (Homo sapiens) (UniProt P05067). Nature of the data set: Inhibition of amyloid beta (1-42) self-induced aggregation (unknown origin) at 25 uM measured every 5 mins for 16 hrs by thioflavin T fluorescence method relative to control.
Chain of Amyloid-beta precursor protein (Homo sapiens) (P05067 whole entry): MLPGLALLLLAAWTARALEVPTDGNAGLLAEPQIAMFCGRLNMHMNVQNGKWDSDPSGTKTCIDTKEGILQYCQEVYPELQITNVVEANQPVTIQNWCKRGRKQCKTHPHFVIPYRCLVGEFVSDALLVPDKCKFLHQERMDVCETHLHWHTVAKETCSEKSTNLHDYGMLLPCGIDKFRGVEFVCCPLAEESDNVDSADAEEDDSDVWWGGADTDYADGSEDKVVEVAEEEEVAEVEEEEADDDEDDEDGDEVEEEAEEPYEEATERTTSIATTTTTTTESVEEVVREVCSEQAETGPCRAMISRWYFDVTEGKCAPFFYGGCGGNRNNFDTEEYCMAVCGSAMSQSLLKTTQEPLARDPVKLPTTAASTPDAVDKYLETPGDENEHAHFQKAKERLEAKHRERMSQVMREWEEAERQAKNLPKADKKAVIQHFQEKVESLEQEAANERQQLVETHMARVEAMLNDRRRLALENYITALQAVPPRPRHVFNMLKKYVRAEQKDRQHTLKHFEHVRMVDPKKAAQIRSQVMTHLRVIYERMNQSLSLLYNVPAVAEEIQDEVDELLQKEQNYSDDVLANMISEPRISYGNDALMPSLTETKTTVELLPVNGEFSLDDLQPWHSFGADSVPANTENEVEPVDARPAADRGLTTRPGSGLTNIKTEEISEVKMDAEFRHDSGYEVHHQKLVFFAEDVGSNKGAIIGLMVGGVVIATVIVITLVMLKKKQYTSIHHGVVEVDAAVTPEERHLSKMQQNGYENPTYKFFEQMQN
Data set [5] shares this target. Put plainly: Inhibition of amyloid beta (1-42) self-induced aggregation (unknown origin) at 5 uM measured every 5 mins for 16 hrs by thioflavin T fluorescence method relative to control.
For data set [6] the target is unchanged. Put plainly: Inhibition of amyloid beta (1-42) self-induced aggregation (unknown origin) at 1 uM measured every 5 mins for 16 hrs by thioflavin T fluorescence method relative to control.
For data set [7] the target is unchanged. Nature of the data set: Inhibition of amyloid beta (1-42) self-induced aggregation (unknown origin) at 10 uM measured every 5 mins for 16 hrs by thioflavin T fluorescence method relative to control.
Data set [8] addresses T1, Cholinesterase. Nature of the data set: Potency index, ratio of galantamine IC50 to compound IC50 for inhibition of human BuChE.
Data set [9] concerns the target Amyloid-beta precursor protein (Homo sapiens) (UniProt P05067). Put plainly: Inhibition of amyloid beta (1-42) self-induced aggregation (unknown origin) measured every 5 mins for 16 hrs by thioflavin T fluorescence method.

One may read the IC50 as the concentration that gives 50% inhibition. Higher therefore signals weaker potency. With `O=C(c1ccccc1)N1c2ccccc2Sc2ccccc21`, the IC50 at Acetylcholinesterase was 8 µM; on Cholinesterase [1], > 100 µM.
As for `COc1cccc(C(=O)N2c3ccccc3Sc3ccccc32)c1`, the results for the IC50 against Acetylcholinesterase and against Cholinesterase [1] were 6.2 µM and 25.5 µM, respectively.
`O=c1c2ccccc2[se]n1-c1ccccc1` [EBSELEN]: in [2], the “inhibition (INH)” value is reported as 34.7%. Further, the viability at 24 h, 50 µM in data set [3] came out at 53.9%. Moreover, the 50% inhibitory concentration (IC50) at Acetylcholinesterase was 6.2 µM; on Cholinesterase [1], 4.6 µM.
Regarding `O=C(c1ccccc1)N1c2ccccc2[Se]c2ccccc21`, the IC50 on Acetylcholinesterase came out at 5.4 µM; on Cholinesterase [1], 22.7 µM.
As to `O=C(c1ccccc1)N1c2ccccc2[Se]c2ccc(Cl)cc21`, the values for the half-maximal inhibitory concentration (IC50) against Acetylcholinesterase and on Cholinesterase [1] were 6 µM and 3.8 µM, respectively.
As a reminder, the inhibition is the share of the control response that was lost under treatment. For `Clc1ccc2c(c1)Nc1ccccc1S2`, the inhibition was found to be 60.8% in data set [4], 22% in data set [5], 10.3% in data set [6] and 33.7% in [7]. Further, the “inhibition (INH)” value in [2] worked out at 76.4%. In addition, the viability at 24 h, 50 µM in data set [3] is 63.3%. Also, the concentration for half-maximal inhibition (IC50) worked out at 7.4 µM against Acetylcholinesterase and 19.2 µM at Cholinesterase [1].
Turning to `COc1ccc(C(=O)N2c3ccccc3[Se]c3ccccc32)cc1`, the values for the half-maximal inhibitory concentration (IC50) at Acetylcholinesterase and against Cholinesterase [1] were 4.6 µM and 11.1 µM, respectively.
The matching figures for `O=C(Cc1ccccc1)N1c2ccccc2[Se]c2ccccc21`: 6.4 µM and 11 µM.
Consider `COc1cccc(C(=O)N2c3ccccc3[Se]c3ccccc32)c1`, for which the IC50 was 6.2 µM at Acetylcholinesterase and 9.6 µM on Cholinesterase [1].
The matching figures for `COc1cccc(C(=O)N2c3ccccc3[Se]c3ccc(Cl)cc32)c1`: 5.9 µM and 19.3 µM.
For the molecule `c1ccc2c(c1)Nc1ccccc1S2` [PHENOTHIAZINE], the inhibition in data set [4] is 62%; in data set [5], 37.2%; in data set [6], 18.3%; in data set [7], 59.1%; in data set [9] it was “Dose-dependent effect”. Besides, the “inhibition (INH)” value in [2] is recorded as 92.1%. Further, the viability at 24 h, 50 µM in data set [3] was 63.3%. The half-inhibitory concentration (IC50) against Acetylcholinesterase worked out at 7.3 µM; against Cholinesterase [1] it was 5.8 µM. Also, the Ratio IC50 at Cholinesterase [8] was determined as 11.
For the molecule `O=C(Cc1ccccc1)N1c2ccccc2Sc2ccccc21`, the IC50 amounted to 7.4 µM on Acetylcholinesterase and 38.3 µM against Cholinesterase [1].
Take `Clc1ccc2c(c1)Nc1ccccc1[Se]2`: the inhibition in [4] turned out to be 45%; in [5], 18.5%; in [6], 14.5%; in data set [7] it was 25.1%. The “inhibition (INH)” value in [2] is reported as 73.2%. Further, in data set [3], the viability at 24 h, 50 µM was determined as 43%. Moreover, the figures for the 50% inhibitory concentration (IC50) against Acetylcholinesterase and against Cholinesterase [1] were 6.3 µM and 4.7 µM, respectively.
In the case of `COc1ccc(C(=O)N2c3ccccc3Sc3ccccc32)cc1`, the IC50 against Acetylcholinesterase is 6.3 µM; at Cholinesterase [1], 53 µM.
As to `COc1ccc(C(=O)N2c3ccccc3Sc3ccccc32)cc1OC`, the inhibition entry in data set [4], in data set [5], in data set [6] and in data set [7] was “inactive” each time. Further, in [2], the “inhibition (INH)” value is recorded as 44.3%. The viability at 24 h, 50 µM in [3] stood at 63.3%. The half-maximal inhibitory concentration (IC50) at Acetylcholinesterase turned out to be 5.8 µM; against Cholinesterase [1], 45 µM.
In the case of `COc1ccc(C(=O)N2c3ccccc3[Se]c3ccccc32)cc1OC`, the inhibition in data set [4] was 11.1%; in [5] it was 5.7%; in data set [6], 6.3%; in data set [7], 8.7%. Also, the “inhibition (INH)” value in [2] is reported as 39%. Besides, the viability at 24 h, 50 µM in [3] amounted to 76%. Also, the results for the IC50 against Acetylcholinesterase and at Cholinesterase [1] were 5.1 µM and 9.1 µM, respectively.
With `COc1ccc(C(=O)N2c3ccccc3[Se]c3ccc(Cl)cc32)cc1OC`, the inhibition in data set [4] turned out to be 5.9%; in data set [5] it was 7.9%; in [6], 8.4%; in data set [7] it was 9.1%. Moreover, the “inhibition (INH)” value in data set [2] came out at 38.3%. Moreover, in [3], the viability at 24 h, 50 µM came out at 76%. The concentration for half-maximal inhibition (IC50) was determined as 6.2 µM on Acetylcholinesterase and 5.7 µM against Cholinesterase [1].
Consider `c1ccc2c(c1)Nc1ccccc1[Se]2`, for which the inhibition in [4] is 45.6%; in data set [5], 24.1%; in [6], 16.3%; in [7], 30.7%; in [9] it was “Dose-dependent effect”. Besides, the “inhibition (INH)” value in data set [2] came out at 84.4%. In addition, the viability at 24 h, 50 µM in data set [3] came to 76%. The half-maximal inhibitory concentration (IC50) against Acetylcholinesterase worked out at 5.6 µM; against Cholinesterase [1], 3 µM. Further, on Cholinesterase [8], the Ratio IC50 was 22.
In the case of `COc1ccc(C(=O)N2c3ccccc3Sc3ccc(Cl)cc32)cc1`, the figures for the half-maximal inhibitory concentration (IC50) at Acetylcholinesterase and on Cholinesterase [1] were 5.9 µM and 5.3 µM, respectively.
Regarding `O=C(CCc1ccccc1)N1c2ccccc2Sc2ccc(Cl)cc21`, the half-maximal inhibitory concentration (IC50) on Acetylcholinesterase came to 7.9 µM; at Cholinesterase [1] it was 5 µM.
The corresponding values for `O=C(CCc1ccccc1)N1c2ccccc2[Se]c2ccc(Cl)cc21` are 6.3 µM and 40 µM.
Regarding `Cc1c(C)c2c(c(C)c1O)CCC(C)(C(=O)O)O2` (configuration not stated) [TROLOX], the “inhibition (INH)” value in data set [2] is 99.2%.
For the molecule `O=C(CCc1ccccc1)N1c2ccccc2Sc2ccccc21`, the IC50 turned out to be 7.1 µM at Acetylcholinesterase and 51 µM against Cholinesterase [1].
The corresponding values for `COc1ccc(C(=O)N2c3ccccc3[Se]c3ccc(Cl)cc32)cc1` are 5.8 µM and 4.9 µM.
As to `COc1cccc(C(=O)N2c3ccccc3Sc3ccc(Cl)cc32)c1`, the results for the IC50 at Acetylcholinesterase and at Cholinesterase [1] were 4.6 µM and 30.8 µM, respectively.
On to `COc1ccc(C(=O)N2c3ccccc3Sc3ccc(Cl)cc32)cc1OC`, for which the inhibition in data set [4] was 5.9%; in data set [5] it was 4.5%; in data set [6] it was 6.2%; in data set [7], 6.5%. Besides, the “inhibition (INH)” value in [2] is on record as 46.5%. The viability at 24 h, 50 µM in data set [3] was 63.3%. Moreover, the half-maximal inhibitory concentration (IC50) at Acetylcholinesterase worked out at 6.4 µM; against Cholinesterase [1], 32.6 µM.
Consider `O=S(=O)(O)c1cc(S(=O)(=O)O)c2c(/N=N/c3ccccc3)c(O)ccc2c1`, for which the inhibition came out at 57.2% in data set [4], 20.4% in [5], 8.6% in data set [6] and 31% in data set [7].
Consider `O=C(c1ccccc1)N1c2ccccc2Sc2ccc(Cl)cc21`, for which the IC50 against Acetylcholinesterase amounted to 9.9 µM; at Cholinesterase [1] it was 9.3 µM.
The matching figures for `O=C(CCc1ccccc1)N1c2ccccc2[Se]c2ccccc21`: 6.7 µM and 38 µM.
The corresponding values for `O=C(Cc1ccccc1)N1c2ccccc2Sc2ccc(Cl)cc21` are 7.5 µM and 3.6 µM.
The matching figures for `O=C(Cc1ccccc1)N1c2ccccc2[Se]c2ccc(Cl)cc21`: 6.5 µM and 5 µM.

The values are drawn from ChEMBL document CHEMBL3769338, “Tricyclic phenothiazine and phenoselenazine derivatives as potential multi-targeting agents to treat Alzheimer's disease” (Medchemcomm, 2015).
